Source: US20170305922A1, “CARM1 INHIBITORS AND USES THEREOF” (Epizyme, Inc., priority 2014, published 2017)

What was measured:
[1] = test system: asymmetric di-methyl PABP1 in RKO cells; test: RKO methylation assay: In Cell Western (ICW) for asymmetric di-methyl PABP1 (PABP1me2a); settings: Homo sapiens, RKO, 48 h, Cellular-based (PABP1me2a) ICW (In Cell Western) assay
Procedure, shortened: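 In-cell western on compound-exposed RKO cells (48 hours): asymmetric di-methyl PABP1 detected by antibody at 800 nm, DNA content by DRAQ5 at 700 nm. Percent inhibition from signal ratios against DMSO (minimum) and 20 μM reference compound (maximum) wells; IC50 curves fitted from triplicates.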

Human CARM1 (PRMT4) = target: T1, Human CARM1 (PRMT4) (Homo sapiens, UniProt Q86X55); test: CARM1 enzyme assay on peptide substrates (3H-SAM Flashplate); settings: Biochemical assay; CARM1 0.25 nM, 3H-SAM 30 nM, peptide 250 nM; read-out: Biochem IC50
T1 construct: Flag-CARM1-His was eluted with 200 ug/ml FLAG peptide in buffer A; made in house; host or cells: HEK 293F cells infected with recombinant baculovirus (pFastBacMam)
T1 sequence (Q86X55 1-585 isoform Q86X55-1): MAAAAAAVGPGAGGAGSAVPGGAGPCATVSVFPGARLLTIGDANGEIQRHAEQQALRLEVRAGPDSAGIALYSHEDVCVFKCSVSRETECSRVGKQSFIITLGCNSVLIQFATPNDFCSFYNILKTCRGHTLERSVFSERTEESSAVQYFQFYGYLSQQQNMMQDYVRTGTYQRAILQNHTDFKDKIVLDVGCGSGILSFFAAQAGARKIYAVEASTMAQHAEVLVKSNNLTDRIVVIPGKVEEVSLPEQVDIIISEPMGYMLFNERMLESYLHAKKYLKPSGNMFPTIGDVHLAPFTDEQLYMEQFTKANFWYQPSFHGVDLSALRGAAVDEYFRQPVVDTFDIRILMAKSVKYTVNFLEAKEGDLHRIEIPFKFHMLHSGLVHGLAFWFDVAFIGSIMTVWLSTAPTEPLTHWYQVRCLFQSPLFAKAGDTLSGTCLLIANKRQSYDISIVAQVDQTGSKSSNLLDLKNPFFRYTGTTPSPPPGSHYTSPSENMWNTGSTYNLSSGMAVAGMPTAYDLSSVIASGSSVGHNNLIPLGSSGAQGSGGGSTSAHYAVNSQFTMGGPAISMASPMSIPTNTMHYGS

Compound | IC50 [1] [nM] | IC50 (Human CARM1 (PRMT4)) [nM]
CNC[C@@H](O)COc1ccc(Cl)c(-c2nc(-c3c(C)c(Cl)nn3C)c(C)c(N3CC4(CN(C(=O)OC)C4)C3)n2)c1 [Example 265] | 87.7 | 4.2
CNC[C@@H](O)COc1ccc(Cl)c(-c2nc(-c3c(C#N)cnn3C)c(C)c(N3Cc4cncnc4C3)n2)c1 [Example 349] | 3110 | 7.81
CNC[C@@H](O)COc1ccc(Cl)c(-c2nc(-c3c(C)noc3C)c(C)c(N3CC4(CN(C(=O)OCC(F)F)C4)C3)n2)c1 [Example 220] | 221 | 4.2
CNC[C@@H](O)COc1ccc(Cl)c(-c2nc(-c3c(C)noc3C)c(C)c(N3CC4(C3)CC(OC)(OC)C4)n2)c1 [Example 272] | 79 | 5.43
CNC[C@@H](O)COc1ccc(Cl)c(-c2nc(-c3c(C)noc3C)c(C)c(N3Cc4nc(C)n(C)c(=O)c4C3)n2)c1 [Example 66] | 261 | 3.7
CNC[C@@H](O)COc1ccc(Cl)c(-c2nc(-c3c(C)noc3C)c(C)c(N3Cc4cnc(C)cc4[C@@H]3C)n2)c1 [Example 142] | 65 | 3.6
CNC[C@@H](O)COc1ccc(Cl)c(-c2nc(-c3c(C)noc3C)c(C)c(N3CC4(CN(CC(F)F)C4)C3)n2)c1 [Example 62] | 526 | 64.7
CNC[C@@H](O)COc1ccc(Cl)c(-c2nc(-c3c(C)noc3C)c(C)c(N3Cc4cccnc4C3C)n2)c1 (stereo partly shown) [Example 123] | 163 | 3.4
CCn1ncc(C)c1-c1nc(-c2cc(OC[C@H](O)CNC)ccc2Cl)nc(N2CC3(CCN(C(=O)OC)CC3)C2)c1C [Example 87] | 205 | 9
CNC[C@@H](O)COc1ccc(Cl)c(-c2nc(-c3c(C)noc3C)c(C)c(N3CC4(CCN4CC(F)(F)F)C3)n2)c1 [Example 100] | 68 | 11.3
CCc1noc(C)c1-c1nc(-c2cc(OC[C@H](O)CNC)ccc2Cl)nc(N2Cc3cccnc3C2)c1C [Example 226] | 134 | 4.6
CCn1ncc(Cl)c1-c1nc(-c2cc(OC[C@H](O)CNC)ccc2Cl)nc(N2Cc3cccnc3C2)c1C [Example 77] | 293 | 3.7
CNC[C@@H](O)COc1ccc(Cl)c(-c2nc(-c3c(C)noc3C)c(C)c(N3CC4(CCCN(C(=O)OCC(F)F)C4)C3)n2)c1 [Example 302] | 70.2 | 5.18
CCOc1ncc2c(n1)CN(c1nc(-c3cc(OC[C@H](O)CNC)ccc3Cl)nc(-c3c(C)noc3CC)c1C)C2 [Example 199] | 84 | 5.7
CNC[C@@H](O)COc1ccc(Cl)c(-c2nc(-c3c(C)noc3C)c(C)c(N3Cc4nc5n(c(=O)c4C3)CCC5)n2)c1 [Example 40] | 391 | 2.8
CNC[C@@H](O)COc1ccc(Cl)c(-c2nc(-c3c(C)noc3C)c(C)c(N3CC4(CCC(OCCOC)CC4)C3)n2)c1 [Example 128] | 99 | 16.3
CNC[C@@H](O)COc1ccc(Cl)c(-c2nc(-c3c(C)noc3C)c(C)c(N3C[C@@H]4C[C@H]3CN4CC(F)F)n2)c1 [Example 137] | 311 | 8
CNC[C@@H](O)COc1ccc(Cl)c(-c2nc(-c3c(C)noc3C)c(C)c(N3CC4(CC(NC)C4)C3)n2)c1 [Example 282] | 2210 | 0.9
CNC[C@@H](O)COc1ccc(C(F)(F)F)c(-c2nc(-c3c(C)noc3C)c(C)c(N3Cc4cn(C(C)C)nc4C3)n2)c1 [Example 22] | 181 | 6.3
CNC[C@@H](O)COc1ccc(Cl)c(-c2nc(-c3c(I)cnn3C)c(C)c(N3Cc4cccnc4C3)n2)c1 [Example 244] | 141 | 1.2
CNC[C@@H](O)COc1ccc(Cl)c(-c2nc(-c3c(C)noc3C)c(C)c(N3Cc4c(C)nn(CC(F)(F)F)c4C3)n2)c1 [Example 13] | 74 | 3.6
CNC[C@@H](O)COc1ccc(Cl)c(-c2nc(-c3c(C)noc3C)c(C)c(N3CC4(CCN(C(C)=O)CC4)C3)n2)c1 [Example 51] | 356 | 10.8
CNC[C@@H](O)COc1cccc(-c2nc(-c3c(C)cnn3C)c(C)c(N3CC4(CCN(C(=O)OC)CC4)C3)n2)c1 [Example 61] | 874 | 13.7
CNC[C@@H](O)COc1ccc(Cl)c(-c2nc(-c3c(C)noc3C)c(C)c(N3CC4(CCC4F)C3)n2)c1 (stereo partly shown) [Example 278] | 544 | 4.11
CNC[C@@H](O)COc1ccc(Cl)c(-c2nc(-c3c(C)noc3C)c(C)c(N3Cc4c(n5c(nc4=O)CCC5)C3)n2)c1 [Example 47] | > 20000 | 6.3
CNC[C@@H](O)COc1cccc(-c2nc(-c3c(C#N)cnn3C)c(C)c(N3Cc4cccnc4C3)n2)c1 [Example 347] | > 2000 | 28.2

Now those with a lower IC50 [1], led by results:

IC50 [1] [nM] | IC50 (Human CARM1 (PRMT4)) [nM] | Compound
33 | 2.3 | CNC[C@@H](O)COc1ccc(Cl)c(-c2nc(-c3c(C)noc3C)c(C)c(N3Cc4ncnc(OC)c4C3)n2)c1 [Example 93]
41 | 4.6 | CCOC1CC2(C1)CN(c1nc(-c3cc(OC[C@H](O)CNC)ccc3Cl)nc(-c3c(C)noc3C)c1C)C2 [Example 231]
18 | 2.4 | CCOc1ncc2c(n1)CN(c1nc(-c3cc(OC[C@H](O)CNC)ccc3Cl)nc(-c3c(C)c(Cl)nn3C)c1C)C2 [Example 155]
25 | 5.5 | CNC[C@@H](O)COc1ccc(Cl)c(-c2nc(-c3c(C)noc3C)c(C)c(N3Cc4cnc(OCCOC)nc4C3)n2)c1 [Example 106]
39 | 11 | CNC[C@@H](O)COc1ccc(Cl)c(-c2nc(-c3c(C)noc3C)c(C)c(N3CC4(CN(CC(F)(F)F)C4)C3)n2)c1 [Example 99]
52 | 4.7 | CNC[C@@H](O)COc1ccc(Cl)c(-c2nc(-c3c(C)noc3C)c(C)c(N3CC4(CC(OC(=O)OC)C4)C3)n2)c1 [Example 239]
46.1 | 2.4 | CNC[C@@H](O)COc1ccc(Cl)c(-c2nc(-c3c(C)c(Cl)nn3C)c(C)c(N3CC4(CN(CC(F)F)C4)C3)n2)c1 [Example 285]
37.1 | 2.39 | CNC[C@@H](O)COc1ccc(Cl)c(-c2nc(-c3c(C)noc3C)c(C)c(N3Cc4ccc(O[C@H]5CCOC5)nc4C3)n2)c1 [Example 254]
26 | 2.7 | CNC[C@@H](O)COc1ccc(Cl)c(-c2nc(-c3c(C)c(Cl)nn3C)c(C)c(N3Cc4cnc(N5CC(F)(F)C5)nc4C3)n2)c1 [Example 146]
32 | 2 | CNC[C@@H](O)COc1ccc(Cl)c(-c2nc(-c3c(C)noc3C)c(C)c(N3Cc4ccc(Cl)nc4C3)n2)c1 [Example 39]
61.9 | 2.26 | CNC[C@@H](O)COc1ccc(Cl)c(-c2nc(-c3c(C)noc3C)c(C)c(N3Cc4ccc(OCC(F)F)nc4C3)n2)c1 [Example 273]
49 | 2.4 | CNC[C@@H](O)COc1ccc(Cl)c(-c2nc(-c3c(C)noc3C)c(C)c(N3Cc4cnc(C5CC5)cc4C3)n2)c1 [Example 36]
52 | 3.1 | CNC[C@@H](O)COc1ccc(Cl)c(-c2nc(-c3c(C)noc3C)c(C)c(N3Cc4nc(C)oc4C3)n2)c1 [Example 149]
18 | 1.9 | CNC[C@@H](O)COc1ccc(Cl)c(-c2nc(-c3c(C)c(Cl)nn3C)c(C)c(N3Cc4cnc(OC)nc4C3)n2)c1 [Example 152]
45 | 4.4 | CNC[C@@H](O)COc1ccc(Cl)c(-c2nc(-c3c(C)noc3C)c(C)c(N3CC4=C(CN(CC(F)F)C4)C3)n2)c1 [Example 54]
53 | 7 | CNC[C@@H](O)COc1ccc(Cl)c(-c2nc(-c3c(C)noc3C)c(C)c(N3CC4(CCN(CC(F)F)C4)C3)n2)c1 [Example 32]
60 | 9.3 | CNC[C@@H](O)COc1ccc(Cl)c(-c2nc(-c3c(C)noc3C)c(C)c(N3CC4(CC(OC)C4)C3)n2)c1 [Example 79]
41 | 3.2 | CNC[C@@H](O)COc1ccc(Cl)c(-c2nc(-c3c(C)noc3C)c(C)c(N3Cc4cnn(C(C)C)c4C3)n2)c1 [Example 28]
19 | 1.9 | CNC[C@@H](O)COc1ccc(Cl)c(-c2nc(-c3c(C)noc3C)c(C)c(N3Cc4cnc(N5CCC5C)nc4C3)n2)c1 (stereo partly shown) [Example 167]
34 | 2.1 | CNC[C@@H](O)COc1ccc(Cl)c(-c2nc(-c3c(C)noc3C)c(C)c(N3Cc4cnc(OC)cc4C3)n2)c1 [Example 169]
13 | 1.8 | CNC[C@@H](O)COc1ccc(Cl)c(-c2nc(-c3c(C)noc3C)c(C)c(N3Cc4cnc(N5CC[C@@H]5C)nc4C3)n2)c1 [Example 195]
